Laboratory results taken from article PMC10424179, “Disrupting Kaposi’s Sarcoma-Associated Herpesvirus (KSHV) Latent Replication with a Small Molecule Inhibitor” (Journal of Medicinal Chemistry, 2023).

Experiments:
[1] = target: T1, oligomerization-deficient mutant of a LANA C-terminal protein fragment (aa 1008–1146) (Human herpesvirus 8 (Kaposi's sarcoma-associated herpesvirus), UniProt Q76SB0); experiment: Microscale thermophoresis (MST) binding assay; parameters: species or system Kaposi's sarcoma-associated herpesvirus (KSHV); conditions: read-out: KD value (MST); LANA aa 1008–1146 mutant; means of at least three replicates
T1 sequence (Q76SB0 1008-1146): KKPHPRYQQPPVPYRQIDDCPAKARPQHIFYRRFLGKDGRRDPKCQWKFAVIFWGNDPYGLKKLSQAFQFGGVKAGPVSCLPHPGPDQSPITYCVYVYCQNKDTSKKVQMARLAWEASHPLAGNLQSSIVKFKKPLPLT
Description: (§1) In these assays, an oligomerization-deficient mutant of a LANA C-terminal protein fragment (aa 1008–1146) and an oligonucleotide representing LANA-binding site (LBS) 1 were used, which are convenient to use and handle for the described biophysical methods, while maintaining the essential DNA-binding interface.[25]
(§2) Equation y = A2 + (A1-A2)/(1 + (x/x0)^p)
1.3 Microscale Thermophoresis (MST) Assay
Microscale Thermophoresis Assay was done as mentioned in a previous publication. 2

[2] = target: LANA–DNA interaction (oligomerization-deficient LANA DBD aa 1008–1146 mutant / LBS1) (Human herpesvirus 8 (Kaposi's sarcoma-associated herpesvirus), UniProt Q76SB0); experiment: Electrophoretic mobility shift assay (EMSA), LANA DBD mutant with LBS1 oligonucleotide; assay type: biochemical, Kaposi's sarcoma-associated herpesvirus (KSHV)
Protocol: as §1
Equation y = A2 + (A1-A2)/(1 + (x/x0)^p) […]
(§3) 1.4 Electrophoretic Mobility Shift Assay (EMSA)
(§4) The EMSA was carried out with slight modific ations as described previously 2 based on the assay in Hellert et al. (2013). 3 His-tagged oligomerization-deficient LANA DBD (aa1008-1146) mutant protein or LANA DBD (aa934-1162) wild type protein (200 nM final) was incubated with a 5´-Dy682-labeled double stranded DNA probe (IBA Lifesciences) (20 nM final) for 30 minutes at RT in the dark. The reaction buffer consisted of 30 mM Tris HCl pH 7.5, 50 mM KCl, 10 mM MgCl2, 1 mM DTT, 1 mM EDTA, 10% glycerol, 0.25% Tween20, 0.5 mg/mL BSA and 0.05 mg/mL poly(dI-dC). […]
(§5) dark. 10 µL of the reaction was run on a pre -run native 5% acrylamide gel for 45 minutes at 100V with tris-borate-EDTA buffer. Images of the gels were acquired and analysed with the Odyssey (Licor) using the Image Studio software.
(§6) Fig S2: Gels of EMSA experiments at 250 μM for all compounds (A) and dose-dependent curves for compound 20 using LANA DBD mutant (B) and LANA wildtype (C) as well as LBS1. Values are means […]
(§7) Gleichung y = A2 + (A1-A2)/(1 + (x/x0)^p) […]

Chromatographic LogD7.4 = assay type: physicochemical; conditions: reversed-phase HPLC, NUCLEODUR C18 Pyramid column; pH 7.4, HPLC-MS based; read-out: Chrom. LogD7.4
Protocol: The next step was an in vitro ADMET profiling of the best seven compounds so far: 9, 11, 14, 19, 20, 21, and 27. The compounds were tested for their kinetic solubility (1% DMSO in PBS, pH 7.4), lipophilicity (chromatographic Log D7.4 value), cellular permeability (using Caco-2 cells), and metabolic stability (using mouse and human liver S9 fractions) (see Table 3). […]
LogD7.4 was analyzed using an HPLC−MS based method. The retention time of 12 compounds with known LogD7.4 was determined and plotted toward their LogD7.4. Linear regression was used to determine the LogD7.4 of unknown compounds. Analysis was performed using a Dionex Ultimate 3000 HPLC system coupled to a TSQ Quantum Access MAX (Thermo Fisher, Dreieich, Germany) with the following conditions: EC150/2 NUCLEODUR C18 Pyramid column, 5 μM (Macherey Nagel, Düren, Germany); eluent A: 50 mM NH4OAc pH 7.4, eluent B: acetonitrile, and flow: 0.6 mL/min. The gradient was set to 0−100% B from 0 to 2.5 min, […]
are means of two replicates. […]

Caco-2 cell permeability = assay type: in vitro ADME; conditions: human, pH 7.4, Caco-2 monolayer, apical to basolateral
Protocol: The next step was an in vitro ADMET profiling of the best seven compounds so far: 9, 11, 14, 19, 20, 21, and 27. The compounds were tested for their kinetic solubility (1% DMSO in PBS, pH 7.4), lipophilicity (chromatographic Log D7.4 value), cellular permeability (using Caco-2 cells), and metabolic stability (using mouse and human liver S9 fractions) (see Table 3).
MTT Assay: Viability of HEK293 cells ~48 hours after treatment […]
Fig S4: MTT assay for compounds 11, 14, 19, 20 and 21 using HEK293 cells. Values are means of […]
Permeability of the compounds was assessed using Caco2 monolayers grown on Transwell® (3460 Costar, Corning). In brief, cells were seeded 60.000 cells/well in 12-well Transwell plates in DMEM medium supplemented with 10% FCS and 1% NEAA. Cells were grown for 7 to 9 days with medium replacement every other day until they reached a tight monolayer. Tightness was defined as transepithelial resistance (TEER) values >300 Ω/cm² (measured using an EVOM Volt-Ohmmeter, World Precision Instruments). At the day of permeability as say, the compound stock solutions in DMSO were diluted to 10µM in Krebs -Ringer-buffer (KRB, pH 7.4). Cells treated with KRB only served as control. Monolayer was washed two times with prewarmed KRB and incubated with 500 µl sample on the apical compartment. Samples from the basolateral side were drawn at t = 0, 15, 30, 60, 120, 180 and 300 min and replaced with fresh buffer. The plates were incubated for 5 h in a cell culture incubator with lateral shaking (200 rpm). TEER values were measured again at the end of the permeability test. Compound concentration was determined with HPLC-ESI-MS/MS in SRM mode and calculated for the cumulative transport. Values are means of three replicates.

[3] = target: T2, LANA–DNA interaction (LANA DBD aa934-1162 wild type / LBS1) (Human herpesvirus 8 type P, UniProt Q9QR71); experiment: EMSA, LANA DBD wild type with LBS1; assay type: biochemical, Kaposi's sarcoma-associated herpesvirus (KSHV)
T2 construct: LANA DBD (aa934-1162) wild type protein (200 nM final) was incubated with
T2 sequence (Q9QR71 901-1129): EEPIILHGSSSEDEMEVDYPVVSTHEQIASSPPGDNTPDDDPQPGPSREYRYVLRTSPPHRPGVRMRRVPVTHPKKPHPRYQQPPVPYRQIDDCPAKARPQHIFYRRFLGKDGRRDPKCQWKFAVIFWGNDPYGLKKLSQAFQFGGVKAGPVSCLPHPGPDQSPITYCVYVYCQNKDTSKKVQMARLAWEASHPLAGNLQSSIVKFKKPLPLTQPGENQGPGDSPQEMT
Protocol: as §2
Fig S1: Binding affinity curves via MST for all compounds. Values are means of at least three replicates.
as §3, §4, §5, §6, §7

COc1ccc(-c2cc(C)c(-n3cc(-c4ccc(C(=O)O)cc4)nn3)cn2)c(Cl)c1 [Compound 20]
Kd [1]: 14.1 ± 3.9 µM
Inhibition (EMSA, LBS1) @250 μM ([2]; compound at 250 μM, LBS1 oligonucleotide, LANA aa 1008–1146 mutant): 93%
IC50 ([2]; read-out: x0 of logistic fit, dose-dependent EMSA curve (converted), Fig S2, LBS1, curve with A2 95.7, assigned to LANA DBD mutant): 43.7 µM
chromatographic logD (Chromatographic LogD7.4): 0.75
Papp A→B at 5 h, 10 µM (Caco-2 cell permeability): 10.3 ± 2.3 ×10⁻⁶ cm/s
IC50 [3]: 205 µM
